{"source": "patent US5475007A", "about": "“1,2,3,4-tetrahydroquinoline-2,3,4-trione-3 or 4-oximes and the use thereof” (priority 1993, dated 1995)", "key": {"[1]": {"tested_on": "glycine binding site of the NMDA receptor", "conditions": "cited from earlier work"}, "[2]": {"conditions": "in words; cited from earlier work"}, "[3]": {"conditions": "in words; cited from earlier work", "remark": "listed apart in the source"}, "[4]": {"conditions": "cited from earlier work; for PCP-like behavioral side effects: in words"}, "[5]": {"molecular_target": "glycine binding site of the NMDA receptor (Rattus norvegicus, UniProt P35439)", "experiment": "1 μM glycine-stimulated [^3 H]-MK801 binding assay (glycine binding assay)", "conditions": "for potency relative to DCK: DCK = 5,7-dichlorokynurenic acid; for binding to the glycine receptor / selectivity for the glycine receptor: in words"}, "[6]": {"experiment": "mouse maximum electroshock seizure model (i.p.)", "format": "in vivo", "conditions": "70 mg/kg i.p. in DMSO, 1 hour before stimulus, 10 mice", "procedure": "5,7-Dichloro-1,2,3,4-tetrahydroquinoline-2,3,4-trione-3-oxime was evaluated for anticonvulsant activity after i.p. administration in the mouse maximum electroshock seizure model. Mice, 30-35 g (male) were injected i.p. with 70 mg/kg of the drug dissolved in DMSO (1 ul/g). Ten mice each were used in the drug and control groups. The control group was injected with an equal volume of DMSO. Seizures were elicited by stimulation with corneal electrodes. The stimulation parameters for eliciting the seizures were as follows: 50 mA, 60 pulses/second square wave, 0.8 ms pulse width, 0.2 sec length of stimulus. Under these conditions, 100% of control animals developed tonic hindlimb extension immediately after the corneal electrical stimulation. A Hugo Basile electroshock seizure stimulator was used for these experiments. The seizure stimulus was applied 1 hour after injection of the drug."}, "PCP receptor": {"molecular_target": "PCP receptor", "conditions": "Wong et al. 1986; cited from earlier work"}, "[7]": {"conditions": "pigeons; cited from earlier work"}, "[8]": {"conditions": "Table 1, glycine binding site, read-out: Ki Gly"}}, "note": "Where two headings read alike, the source gives them in different places."}
{"smiles": "NC1CCN(O)C1=O", "note": "(racemic) [HA-966]", "values": [{"measurement": "agonism and affinity at the glycine binding site", "setting": "[1]; in words", "result": "partial agonist with micromolar affinity for the glycine binding site"}, {"measurement": "penetration of the blood/brain barrier", "setting": "[2]", "result": "sufficiently penetrates the blood/brain barrier"}]}
{"smiles": "O=C(O)c1cc(O)c2c(Cl)cc(Cl)cc2n1", "note": "[5,7-dichlorokynurenic acid]", "values": [{"measurement": "receptor binding affinity in vitro", "setting": "[1]; in words", "result": "relatively high receptor binding affinity in vitro"}]}
{"smiles": "O=C(O)c1cc(O)c2ccc(Cl)cc2n1", "note": "[7-Cl-kynurenic acid]", "values": [{"measurement": "receptor binding affinity in vitro", "setting": "[1]; in words", "result": "relatively high receptor binding affinity in vitro"}, {"measurement": "penetration of the blood/brain barrier", "setting": "[2]", "result": "cannot penetrate the blood/brain barrier"}]}
{"smiles": "O=C(O)[C@@H]1C[C@H](CP(=O)(O)O)CCN1", "note": "[CGS 19755]", "values": [{"measurement": "neuroprotective efficacy", "setting": "[3]", "result": "have neuroprotective efficacy"}, {"measurement": "PCP-like behavioral side effects", "setting": "[4]", "result": "adverse PCP-like behavioral side effects"}]}
{"smiles": "O=C1Nc2ccccc2C(=NO)C1=O", "note": "[Compound 14a, 1,2,3,4-Tetrahydroquinoline-2,3,4-trione-4-oxime]", "values": [{"measurement": "IC50", "setting": "[5]; 1 μM glycine", "result": 18.4, "unit": "µM"}, {"measurement": "potency relative to DCK", "setting": "[5]", "result": "14 % of DCK"}, {"measurement": "Ki", "setting": "[5]; [8]", "result": 1.7, "unit": "µM"}, {"measurement": "binding to the glycine receptor", "setting": "[5]", "result": "high binding"}, {"measurement": "selectivity for the glycine receptor", "setting": "[5]", "result": "highly selective"}]}
{"smiles": "O=C1Nc2ccccc2C(=O)C1=NO", "note": "[Compound 17a, 1,2,3,4-Tetrahydroquinoline-2,3,4-trione-3-oxime]", "values": [{"measurement": "Ki", "setting": "[5]", "result": 20, "unit": "µM"}, {"measurement": "potency relative to DCK", "setting": "[5]", "result": "1.3 % of DCK"}, {"measurement": "binding to the glycine receptor", "setting": "[5]", "result": "high binding"}, {"measurement": "selectivity for the glycine receptor", "setting": "[5]", "result": "highly selective"}]}
{"smiles": "O=C1Nc2cc(Cl)cc(Cl)c2C(=O)C1=NO", "note": "[Compound 17b, 5,7-Dichloro-1,2,3,4-tetrahydroquinoline-2,3,4-trione-3-oxime]", "values": [{"measurement": "Ki", "setting": "[5]", "result": 0.02, "unit": "µM"}, {"measurement": "potency relative to DCK", "setting": "[5]", "result": "1126 % of DCK"}, {"measurement": "times more active than the unsubstituted compound 17a", "setting": "[5]; Ki ratio versus 17a", "result": "about 1000 times"}, {"measurement": "prevention of seizures", "setting": "[6]", "result": "prevented seizures from occurring in out of 10 animals"}]}
{"smiles": "O=C1Nc2cc(Cl)c(Cl)cc2C(=O)C1=NO", "note": "[Compound 17c, 6,7-Dichloro-1,2,3,4-tetrahydroquinoline-2,3,4-trione-3-oxime]", "values": [{"measurement": "Ki", "setting": "[5]", "result": 0.05, "unit": "µM"}, {"measurement": "potency relative to DCK", "setting": "[5]", "result": "439 % of DCK"}]}
{"smiles": "O=C1Nc2ccc(Cl)c(Cl)c2C(=O)C1=NO", "note": "[Compound 17d, 5,6-Dichloro-1,2,3,4-tetrahydroquinoline-2,3,4-trione-3-oxime]", "values": [{"measurement": "Ki", "setting": "[5]", "result": 0.36, "unit": "µM"}, {"measurement": "potency relative to DCK", "setting": "[5]", "result": "about 55 % of DCK"}]}
{"smiles": "O=C1Nc2cc(Cl)c(Cl)c(Cl)c2C(=O)C1=NO", "note": "[Compound 17e, 5,6,7-Trichloro-1,2,3,4-tetrahydroquinoline-2,3,4-trione-3-oxime]", "values": [{"measurement": "Ki", "setting": "[5]", "result": 0.05, "unit": "µM"}, {"measurement": "potency relative to DCK", "setting": "[5]", "result": "about 400 % of DCK"}]}
{"smiles": "CC(=O)ON=C1C(=O)Nc2cc(Cl)cc(Cl)c2C1=O", "note": "[Compound 18b, 5,7-Dichloro-1,2,3,4-tetrahydroquinoline-2,3,4-trione-3-acetyloxime]", "values": [{"measurement": "potency relative to DCK", "setting": "[5]", "result": "142 % of DCK"}, {"measurement": "Ki", "setting": "[5]; [8]", "result": 0.15, "unit": "µM"}, {"measurement": "Ki", "setting": "[5]; glycine/NMDA receptor, read-out: Ki value", "result": 0.16, "unit": "µM"}]}
{"smiles": "O=C(O)[C@@H]1C[C@H]2C[C@@H](CP(=O)(O)O)CC[C@H]2CN1", "note": "[LY274614]", "values": [{"measurement": "neuroprotective efficacy", "setting": "[3]", "result": "have neuroprotective efficacy"}]}
{"smiles": "C[C@]12N[C@H](Cc3ccccc31)c1ccccc12", "note": "[MK-801]", "values": [{"measurement": "Kd", "setting": "PCP receptor", "result": "~0.003", "unit": "µM"}, {"measurement": "neuroprotective efficacy", "setting": "[3]", "result": "neuroprotective efficacy both in vitro and in vivo"}, {"measurement": "PCP-like behavioral side effects", "setting": "[4]", "result": "adverse PCP-like behavioral side effects"}]}
{"smiles": "c1ccc(C2(N3CCCCC3)CCCCC2)cc1", "note": "[PCP, phencyclidine]", "values": [{"measurement": "neuroprotective efficacy", "setting": "[3]", "result": "neuroprotective efficacy both in vitro and in vivo"}, {"measurement": "behavioral excitation (hyperlocomotion)", "setting": "[4]; rodents", "result": "behavioral excitation"}, {"measurement": "katalepsy", "setting": "[7]", "result": "characteristic katalepsy in pigeons"}]}
{"smiles": "COc1ccc2c(c1)[C@]13CCCC[C@@H]1[C@H](C2)N(C)CC3", "note": "[dextromethorphan]", "values": [{"measurement": "neuroprotective efficacy", "setting": "[3]", "result": "neuroprotective efficacy both in vitro and in vivo"}]}
{"smiles": "NCC(=O)O", "note": "[glycine]", "values": [{"measurement": "Kd", "setting": "[1]; used in Cheng and Prusoff equation, read-out: known affinity of glycine for the glycine binding site", "result": 0.1, "unit": "µM"}]}
{"smiles": "O=C(O)c1cc2ccccc2[nH]1", "note": "[indole-2-carboxylic acid]", "values": [{"measurement": "receptor binding affinity in vitro", "setting": "[1]; in words", "result": "relatively high receptor binding affinity in vitro"}, {"measurement": "penetration of the blood/brain barrier", "setting": "[2]", "result": "cannot penetrate the blood/brain barrier"}]}
{"smiles": "CNC1(c2ccccc2Cl)CCCCC1=O", "note": "(centres unmarked) [ketamine]", "values": [{"measurement": "neuroprotective efficacy", "setting": "[3]", "result": "neuroprotective efficacy both in vitro and in vivo"}]}
